Experimental data reported in ChEMBL document CHEMBL1201862, “PubChem BioAssay data set” (2004).
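Cultured in 96-well plates, cells were exposed to test compound for 48 hours across five concentrations. GI50: concentration for 50% inhibition of growth.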 Calls of active or inactive are those of the source. Cut-off read from the data, not from the text of the source: active = GI50 up to about 1.1 µM and inactive = higher.

How the values were obtained:
Assay in all cases: NCI anticancer screen, dose series, 48 h
M14 = tested on: M14
SF-539 = tested on: SF-539
U-251 = tested on: U-251
CAKI-1 = tested on: CAKI-1
HCC 2998 = tested on: HCC 2998
EKVX = tested on: EKVX
UACC-62 = tested on: UACC-62
DLD-1 = tested on: DLD-1
SF-268 = tested on: SF-268
SK-OV-3 = tested on: SK-OV-3
HCT-116 = tested on: HCT-116
NCI-H522 = tested on: NCI-H522
MOLT-4 = tested on: MOLT-4
SW-620 = tested on: SW-620
RXF 393 = tested on: RXF 393
RPMI-8226 = tested on: RPMI-8226
Hs-578T = tested on: Hs-578T
PC-3 = tested on: PC-3
A498 = tested on: A498
MDA-MB-231 = tested on: MDA-MB-231

SMILES | GI50 (M14) | GI50 (SF-539) | GI50 (U-251) | GI50 (CAKI-1) | GI50 (HCC 2998) | GI50 (EKVX) | GI50 (UACC-62) | GI50 (DLD-1) | GI50 (SF-268) | GI50 (SK-OV-3) | GI50 (HCT-116) | GI50 (NCI-H522) | GI50 (MOLT-4) | GI50 (SW-620) | GI50 (RXF 393) | GI50 (RPMI-8226) | GI50 (Hs-578T) | GI50 (PC-3) | GI50 (A498) | GI50 (MDA-MB-231)
S=C(N/N=C/c1ccccc1)NC1CC(c2ccccc2)Oc2ccccc21 (centres undefined) | 15.3 µM (inactive) | 38.3 µM (inactive) | 33.4 µM (inactive) | 28.4 µM (inactive) | > 100 µM (inactive) | 18.8 µM (inactive) | 48.8 µM (inactive) | 91.8 µM (inactive) | 51.4 µM (inactive) | 11.7 µM (inactive) | 72.1 µM (inactive) | > 100 µM (inactive) | > 10 µM (inactive) | > 100 µM (inactive) | – | – | – | – | – | –
CC1=CC(C)C/C=C/C2C3OC3(C)C(C)C3C(Cc4c[nH]c5ccccc45)NC(=O)C23C(=O)C=CC(=O)C1O (centres undefined) | 3.57 µM (inactive) | 6.97 µM (inactive) | 16.4 µM (inactive) | 0.885 µM (active) | 2.6 µM (inactive) | 1.19 µM (inactive) | 15.2 µM (inactive) | – | 15.1 µM (inactive) | 12.4 µM (inactive) | 2.95 µM (inactive) | 1.4 µM (inactive) | 2.01 µM (inactive) | 2.02 µM (inactive) | 1.38 µM (inactive) | 0.272 µM (active) | 3.72 µM (inactive) | 11.6 µM (inactive) | 0.213 µM (active) | 4.67 µM (inactive)
COc1ccc(/C=C/C(=O)N[C@@H]2C(=O)N3[C@@H]2SC(C)(C)[C@@H]3C(=O)O)cc1OC | > 100 µM (inactive) | > 100 µM (inactive) | > 100 µM (inactive) | > 100 µM (inactive) | > 100 µM (inactive) | > 100 µM (inactive) | > 100 µM (inactive) | – | > 100 µM (inactive) | > 100 µM (inactive) | > 100 µM (inactive) | 85.5 µM (inactive) | > 100 µM (inactive) | > 100 µM (inactive) | > 100 µM (inactive) | > 100 µM (inactive) | > 100 µM (inactive) | > 100 µM (inactive) | > 100 µM (inactive) | > 100 µM (inactive)
C[C@H](NC1=C(Cl)C(=O)c2c(O)ccc(O)c2C1=O)C(=O)Nc1ccc([N+](=O)[O-])cc1 | 1.25 µM (inactive) | 2.21 µM (inactive) | 2.58 µM (inactive) | 4.13 µM (inactive) | 3.33 µM (inactive) | 4.93 µM (inactive) | 2.4 µM (inactive) | – | 2.16 µM (inactive) | 6.89 µM (inactive) | 1.41 µM (inactive) | 2.9 µM (inactive) | 10 µM (inactive) | 3.05 µM (inactive) | 1.56 µM (inactive) | 1.84 µM (inactive) | 4.57 µM (inactive) | 3.41 µM (inactive) | 2.39 µM (inactive) | 1.91 µM (inactive)
CCOC(=O)COC1=Nc2cc(OC)c(OC)c3nc(Cl)cc(c23)C1=O | 1.65 µM (inactive) | 1.92 µM (inactive) | 2.94 µM (inactive) | 1.96 µM (inactive) | 5.5 µM (inactive) | 0.716 µM (active) | 1.78 µM (inactive) | – | 2.37 µM (inactive) | 10.1 µM (inactive) | 1.67 µM (inactive) | 1.6 µM (inactive) | 0.383 µM (active) | 2.16 µM (inactive) | 1.75 µM (inactive) | 1.52 µM (inactive) | 2.77 µM (inactive) | 1.79 µM (inactive) | 11.4 µM (inactive) | 1.76 µM (inactive)
O=C(NC1(C(=O)O)CC1c1ccccc1)c1ccccc1 (centres undefined) | > 100 µM (inactive) | > 100 µM (inactive) | > 100 µM (inactive) | > 100 µM (inactive) | > 100 µM (inactive) | > 100 µM (inactive) | > 100 µM (inactive) | – | > 100 µM (inactive) | > 100 µM (inactive) | > 100 µM (inactive) | > 100 µM (inactive) | > 100 µM (inactive) | > 100 µM (inactive) | > 100 µM (inactive) | > 100 µM (inactive) | > 100 µM (inactive) | > 100 µM (inactive) | > 100 µM (inactive) | > 100 µM (inactive)
COC(O)C12OC3CO[Si](C(C)C)(C(C)C)O[Si](C(C)C)(C(C)C)OC3C1Oc1nc(=O)ccn12 (centres undefined) | 12.7 µM (inactive) | 15.7 µM (inactive) | > 31.7 µM (inactive) | 18.2 µM (inactive) | 3.94 µM (inactive) | 13.6 µM (inactive) | 11 µM (inactive) | – | 9.91 µM (inactive) | 17.7 µM (inactive) | 8.61 µM (inactive) | 4.88 µM (inactive) | 2.15 µM (inactive) | > 36.8 µM (inactive) | 11.9 µM (inactive) | 1 µM (active) | 2.67 µM (inactive) | 4.7 µM (inactive) | 17.3 µM (inactive) | 17.1 µM (inactive)
CCOP(=O)(OCC)/C(C#N)=C/c1ccc(-c2ccc(F)cc2F)o1 | 17.2 µM (inactive) | 20.7 µM (inactive) | 14.8 µM (inactive) | 15.3 µM (inactive) | 14 µM (inactive) | 16.3 µM (inactive) | 11.3 µM (inactive) | – | 17.3 µM (inactive) | 14 µM (inactive) | 17.4 µM (inactive) | 15.3 µM (inactive) | 10.6 µM (inactive) | 18.7 µM (inactive) | 29 µM (inactive) | 18.4 µM (inactive) | > 10 µM (inactive) | 10.8 µM (inactive) | 15.1 µM (inactive) | 16.7 µM (inactive)
O=C1c2cccc3cccc(c23)C(=O)N1CCCNCCCCNCCCN1C(=O)c2cccc3cccc(c23)C1=O | 0.604 µM (active) | 0.0843 µM (active) | 0.0402 µM (active) | 0.857 µM (active) | 0.0755 µM (active) | 0.986 µM (active) | 0.337 µM (active) | – | 0.025 µM (active) | 0.982 µM (active) | 0.0738 µM (active) | < 0.0112 µM (active) | < 0.01 µM (active) | 0.0612 µM (active) | 0.0933 µM (active) | < 0.0205 µM (active) | 0.0401 µM (active) | 0.17 µM (active) | 0.946 µM (active) | 0.137 µM (active)
OC(c1ccc(Br)cc1)(c1cccs1)C1CC1 (centres undefined) | 21.1 µM (inactive) | 21.4 µM (inactive) | 17.8 µM (inactive) | 20.8 µM (inactive) | 23.6 µM (inactive) | 31.3 µM (inactive) | 16.4 µM (inactive) | – | 20.7 µM (inactive) | 36.4 µM (inactive) | 16.3 µM (inactive) | 18.5 µM (inactive) | 22.1 µM (inactive) | 30.5 µM (inactive) | 18.6 µM (inactive) | 21.6 µM (inactive) | 22.3 µM (inactive) | 22.8 µM (inactive) | 21.5 µM (inactive) | 18.3 µM (inactive)
Cc1cc2c(nn1)-c1ccccc1C2=O | > 10 µM (inactive) | > 10 µM (inactive) | > 10 µM (inactive) | > 10 µM (inactive) | > 10 µM (inactive) | > 10 µM (inactive) | > 10 µM (inactive) | – | > 10 µM (inactive) | > 10 µM (inactive) | > 10 µM (inactive) | > 10 µM (inactive) | > 10 µM (inactive) | > 10 µM (inactive) | > 10 µM (inactive) | > 10 µM (inactive) | > 10 µM (inactive) | > 10 µM (inactive) | > 10 µM (inactive) | > 10 µM (inactive)
